Source: patent publication US8916555B2, “3,5-diaminopyrazole kinase inhibitors” (Axikin Pharmaceuticals, Inc., priority 2012, dated 2014)

Tests used:
[1] = target: T1, kinase domain protein of RC kinase (Homo sapiens, UniProt Q56UN5); test: Enzymatic assay for kinase inhibitory activity (Crebtide substrate, LANCE readout), kinase domain protein; format: biochemical; details: test compound 1 μM, ATP 1 μM, Crebtide 50 nM
T1 sequence (Q56UN5 1061-1324 limits assumed): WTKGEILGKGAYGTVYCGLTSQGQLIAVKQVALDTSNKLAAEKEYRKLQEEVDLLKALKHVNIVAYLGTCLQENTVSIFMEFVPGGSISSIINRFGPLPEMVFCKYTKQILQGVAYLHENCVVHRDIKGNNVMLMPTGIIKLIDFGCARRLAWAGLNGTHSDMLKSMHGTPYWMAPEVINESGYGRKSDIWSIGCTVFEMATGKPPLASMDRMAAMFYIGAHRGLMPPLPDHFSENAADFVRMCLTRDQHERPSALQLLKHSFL
Method: Solutions of a test compound, Crebtide (a substrate), a kinase, and ATP were prepared using 1×MAPK Buffer (50 mM HEPES, 1 mM EGTA, […], 10 mM MgCl2, 2 mM DTT, and 0.01% Tween 20).
To each well, the test compound (1 μL) was first added (in duplicate) to reach a final concentration of 1 μM or 1×IC50 of the compound. The kinase (5 μL) was then added to each well to reach a final concentration of […] for the kinase domain or […] for the full-length domain. Each plate included a positive and negative controls in duplicate wells. Crebtide (2.5 μL) was then added to each well in duplicate to reach a final concentration of 50 nM. If the full-length kinase was used, the plates were incubated for 45 min at room temperature before proceeding further. ATP (2.5 μL) was added to each well to reach a final concentration of 1 μM for the kinase domain and 3 μM for the full-length.
After the addition of ATP, the plates were incubated for 45 min at room temperature. During the incubation, an EDTA solution (40 mM) and anti-Crebtide ([…]) were prepared. Additionally, a detection buffer stock solution was diluted ten fold before use.
After the incubation, the anti-Crebtide (5 μL) and EDTA (5 μL) were added to each well to reach their final concentrations of […] and 10 mM, respectively. The plates were allowed to develop at room temperature for 45 min. The plates were then read at 665 nm and 615 nm using Perkin Elmer Lance machine.
The biological results of inhibition of the kinase domain protein of RC kinase are summarized in Tables 2 and 3, wherein A represents at least 50% inhibition of the RC kinase activity at 1 μM; B represents no greater than 50% but at least 20% inhibition of the RC kinase activity at 1 μM; C represents no greater than 20% but at least 5% inhibition of the RC kinase activity at 1 μM; and D represents no greater than 5% inhibition of the RC kinase activity at 1 μM.

inhibition at 1 µM [1] [%]	melting point [°C]	Compound	Activity (inhibition of the RC kinase activity at 1 μM) [1]
5 to 20	171 to 174	N#Cc1c(Nc2cccc(Cl)c2)n[nH]c1NCc1ccc(Cl)cc1Cl [Compound C19]	–
5 to 20	172 to 180	N#Cc1c(Nc2cccc(Cl)c2)n[nH]c1NCc1ccc(Cl)cc1O [Compound C24]	–
5 to 20	97 to 105	COc1ccc(CNc2[nH]nc(Nc3cccc(Cl)c3)c2C#N)cc1F [Compound C27]	–
≤ 5	205 to 208	N#Cc1c(Nc2cccc(Cl)c2)n[nH]c1NCc1ccc(O)cc1 [Compound C31, 3-((3-chlorophenyl)amino)-5-((4-hydroxybenzyl)amino)-1H-pyrazole-4-carbonitrile]	–
–	184 to 194	N#Cc1c(Nc2cccc(Cl)c2)n[nH]c1NCc1ccc(Oc2ccc(C(F)(F)F)cn2)cc1 [Compound C32, 3-((3-chlorophenyl)amino)-5-((4-((5-(trifluoromethyl)pyridin-2-yl)oxy)benzyl)amino)-1H-pyrazole-4-carbonitrile]	C (no greater than 20% but at least 5% inhibition of the RC kinase activity at 1 μM)
20 to 50	216 to 222	N#Cc1c(Nc2cccnc2)n[nH]c1NCc1ccc(O)cc1 [Compound C33, 5-((4-hydroxybenzyl)amino)-3-(pyridin-3-ylamino)-1H-pyrazole-4-carbonitrile]	–
≥ 50	196 to 200	NC(=O)c1c(Nc2cccc(Cl)c2)n[nH]c1NCc1ccc(O)cc1 [Compound D1, 3-((3-chlorophenyl)amino)-5-((4-hydroxybenzyl)amino)-1H-pyrazole-4-carboxamide]	–
20 to 50	214 to 216	NC(=O)c1c(Nc2ccccc2)n[nH]c1NCc1ccc(O)cc1 [Compound D2]	–
–	193 to 199	NC(=O)c1c(Nc2cccc(Cl)c2)n[nH]c1NCc1ccc(Oc2ncccn2)cc1 [Compound D32, 3-((3-chlorophenyl)amino)-5-((4-(pyrimidin-2-yloxy)benzyl)amino)-1H-pyrazole-4-carboxamide]	B (no greater than 50% but at least 20% inhibition of the RC kinase activity at 1 μM)
5 to 20	205 to 211	NC(=O)c1c(Nc2cccc(Cl)c2)n[nH]c1NCc1ccc(Oc2ccc(C(F)(F)F)cn2)cc1 [Compound D33, 3-((3-chlorophenyl)amino)-5-((4-((5-(trifluoromethyl)pyridin-2-yl)oxy)benzyl)amino)-1H-pyrazole-4-carboxamide]	–
≥ 50	208 to 212	NC(=O)c1c(Nc2cccnc2)n[nH]c1NCc1cccc(O)c1 [Compound D38, 5-((3-hydroxybenzyl)amino)-3-(pyridin-3-ylamino)-1H-pyrazole-4-carboxamide]	–
20 to 50	226 to 229	COc1cc(CNc2[nH]nc(Nc3cccnc3)c2C(N)=O)ccc1F [Compound D40, 5-((4-fluoro-3-methoxybenzyl)amino)-3-(pyridin-3-ylamino)-1H-pyrazole-4-carboxamide]	–
20 to 50	225 to 229	CN(C)c1ccc(CNc2[nH]nc(Nc3cccnc3)c2C(N)=O)c2ccccc12 [Compound D42, 5-(((4-(dimethylamino)naphthalen-1-yl)methyl)amino)-3-(pyridin-3-ylamino)-1H-pyrazole-4-carboxamide]	–
20 to 50	231 to 236	CCOc1ccc2ccccc2c1CNc1[nH]nc(Nc2cccnc2)c1C(N)=O [Compound D43, 5-(((2-ethoxynaphthalen-1-yl)methyl)amino)-3-(pyridin-3-ylamino)-1H-pyrazole-4-carboxamide]	–
5 to 20	197 to 202	COc1cc(OC)c(OC)cc1CNc1[nH]nc(Nc2cccnc2)c1C(N)=O [Compound D46, 3-(pyridin-3-ylamino)-5-((2,4,5-trimethoxybenzyl)amino)-1H-pyrazole-4-carboxamide]	–
5 to 20	201 to 206	NC(=O)c1c(Nc2cccnc2)n[nH]c1NCc1ccc[nH]1 [Compound D53, 5-(((1H-pyrrol-2-yl)methyl)amino)-3-(pyridin-3-ylamino)-1H-pyrazole-4-carboxamide]	–

inhibition at 1 µM [1] [%]	melting point [°C]	Compound	Activity (inhibition of the RC kinase activity at 1 μM) [1]
5 to 20	193 to 198	NC(=O)c1c(Nc2cccc(Cl)c2)n[nH]c1NCc1ccc[nH]1 [Compound D59]	–
≥ 50	228 to 231	NC(=O)c1c(Nc2ccc(-n3ccnc3)cc2)n[nH]c1NCc1ccc(O)cc1 [Compound D60]	–
≥ 50	169 to 174	Cc1ccc(Nc2n[nH]c(NCc3ccc(O)cc3)c2C(N)=O)cc1 [Compound D61, 5-((4-hydroxybenzyl)amino)-3-(p-tolylamino)-1H-pyrazole-4-carboxamide]	–
≥ 50	167 to 172	CC(=O)c1ccc(Nc2n[nH]c(NCc3ccc(O)cc3)c2C(N)=O)cc1 [Compound D62, 3-((4-acetylphenyl)amino)-5-((4-hydroxybenzyl)amino)-1H-pyrazole-4-carboxamide]	–
≥ 50	225 to 230	NC(=O)c1ccc(Nc2n[nH]c(NCc3ccc(O)cc3)c2C(N)=O)cc1 [Compound D63, 3-((4-carbamoylphenyl)amino)-5-((4-hydroxybenzyl)amino)-1H-pyrazole-4-carboxamide]	–
≥ 50	200 to 203	N#CCc1ccc(Nc2n[nH]c(NCc3ccc(O)cc3)c2C(N)=O)cc1 [Compound D64, 3-((4-(cyanomethyl)phenyl)amino)-5-((4-hydroxybenzyl)amino)-1H-pyrazole-4-carboxamide]	–
≥ 50	177 to 180	COc1cccc(Nc2n[nH]c(NCc3ccc(O)cc3)c2C(N)=O)c1 [Compound D65, 5-((4-hydroxybenzyl)amino)-3-((3-methoxyphenyl)amino)-1H-pyrazole-4-carboxamide]	–
≥ 50	189 to 194	N#Cc1cccc(Nc2n[nH]c(NCc3ccc(O)cc3)c2C(N)=O)c1 [Compound D66, 3-((3-cyanophenyl)amino)-5-((4-hydroxybenzyl)amino)-1H-pyrazole-4-carboxamide]	–
≥ 50	132 to 136	CCOC(=O)c1cccc(Nc2n[nH]c(NCc3ccc(O)cc3)c2C(N)=O)c1 [Compound D67, ethyl 3-((4-carbamoyl-5-((4-hydroxybenzyl)amino)-1H-pyrazol-3-yl)amino)benzoate]	–
≥ 50	208 to 212	CCc1cccc(Nc2n[nH]c(NCc3ccc(O)cc3)c2C(N)=O)c1 [Compound D68, 3-((3-ethylphenyl)amino)-5-((4-hydroxybenzyl)amino)-1H-pyrazole-4-carboxamide]	–
5 to 20	196 to 200	COc1ccc(CNc2[nH]nc(Nc3cccc(Cl)c3)c2C(N)=O)c(OC)c1OC [Compound D69]	–
20 to 50	195 to 199	COc1ccc(CNc2[nH]nc(Nc3cccc(Cl)c3)c2C(N)=O)c(C)c1 [Compound D73]	–
≥ 50	162 to 168	NC(=O)c1c(Nc2ccc(N3CCOCC3)c(Cl)c2)n[nH]c1NCc1ccc(O)cc1 [Compound D75, 3-((3-chloro-4-morpholinophenyl)amino)-5-((4-hydroxybenzyl)amino)-1H-pyrazole-4-carboxamide]	–
≥ 50	250 to 260	NC(=O)c1c(Nc2ccc3[nH]ncc3c2)n[nH]c1NCc1ccc(O)cc1 [Compound D76, 3-((1H-indazol-5-yl)amino)-5-((4-hydroxybenzyl)amino)-1H-pyrazole-4-carboxamide]	–
≥ 50	210 to 220	CC(C)N1CCN(c2ccc(Nc3n[nH]c(NCc4ccc(O)cc4)c3C(N)=O)cc2)CC1 [Compound D82, 5-((4-hydroxybenzyl)amino)-3-((4-(4-isopropylpiperazin-1-yl)phenyl)amino)-1H-pyrazole-4-carboxamide]	–
≥ 50	221 to 225	NC(=O)c1c(Nc2ccc(Cl)nc2)n[nH]c1NCc1ccc(O)cc1 [Compound D90, 3-((6-chloropyridin-3-yl)amino)-5-((4-hydroxybenzyl)amino)-1H-pyrazole-4-carboxamide]	–
